Laboratory results: US20220401404A1, “Co-Administration Therapy to Prevent Neurodegeneration and Enhance Neuroprotection” (THE REGENTS OF THE UNIVERSITY OF CALIFORNIA, priority 2019, published 2022)
Where “and” joins values, the source holds several entries; their conditions need not be identical. Equal entries are not always repeated. Where two headings read alike, the source gives them in different places.

What was measured:
recombinant hCES1b = biological target: T1, recombinant hCES1b (Homo sapiens, UniProt P23141); assay: Inhibition of hCES1b-mediated fenofibrate hydrolysis (Ki); assay type: biochemical; conditions: matrix hCES1b, substrate fenofibrate
T1 sequence (P23141 18-567): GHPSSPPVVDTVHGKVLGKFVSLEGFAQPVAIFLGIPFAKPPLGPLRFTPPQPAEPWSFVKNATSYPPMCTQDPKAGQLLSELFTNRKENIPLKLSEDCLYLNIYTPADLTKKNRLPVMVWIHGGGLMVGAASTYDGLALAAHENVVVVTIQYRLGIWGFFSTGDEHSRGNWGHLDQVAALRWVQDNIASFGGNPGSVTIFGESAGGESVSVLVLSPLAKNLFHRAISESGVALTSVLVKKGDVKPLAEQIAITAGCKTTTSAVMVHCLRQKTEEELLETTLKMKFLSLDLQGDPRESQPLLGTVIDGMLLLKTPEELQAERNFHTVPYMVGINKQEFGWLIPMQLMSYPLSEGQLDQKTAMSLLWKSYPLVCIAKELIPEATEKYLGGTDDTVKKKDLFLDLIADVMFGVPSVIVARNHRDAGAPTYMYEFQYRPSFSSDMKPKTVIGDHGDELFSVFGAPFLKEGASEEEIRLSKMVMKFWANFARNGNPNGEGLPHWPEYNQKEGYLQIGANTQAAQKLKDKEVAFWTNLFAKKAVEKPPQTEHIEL
Method: (§1) FIGS. 5A-5D. […] Reaction was stopped, supernatant collected and fenofibric acid level was determined by LC-MS/MS. Ki values were calculated, and the type of inhibition was determined by fitting data to enzyme inhibition models: competitive (FIG. 5A), non-competitive (FIG. 5B), uncompetitive (FIG. 5C) and mixed (FIG. 5D) models. The samples were analyzed in duplicates and represented as mean values.
(§2) Incubation mixtures containing 100 mM Tris-Cl buffer (pH 7.4), recombinant hCES1b (0.05 mg/mL) or pooled human liver microsomes (1 mg/mL) and 8 concentrations of kaempferol or a positive control inhibitor (bis(4-nitrophenyl)-phosphate, BNP) were pre-incubated for 2 minutes at 37° C. […] The reactions were stopped by the addition of a stop solution containing an internal standard. Samples were centrifuged to precipitate protein and the supernatant was collected for LC-MS/MS analysis. The fenofibric acid was quantified using standard curves. The Ki values were calculated, and the type of inhibition was determined by fitting data to specific enzyme inhibition models (Table 2).

[1] = biological target: pooled human liver microsomes (HLM); assay: Inhibition of fenofibrate hydrolysis in pooled human liver microsomes (Ki); assay type: in vitro ADME; conditions: matrix HLM, substrate fenofibrate
Method: as §1, with “6A-6D.” for “5A-5D.”, “The reaction” for “Reaction”, “6A),” for “5A),”, “6B),” for “5B),”, “6C)” for “5C)”, “6D)” for “5D)”
as §2

[2] = system: primary astrocytes derived from PGC-1α WT (PGC-1α+/+) mice; assay: LPS-induced inflammation in primary astrocytes from PGC-1α WT mice (RT-PCR gene expression); assay type: cell-based, mouse; conditions: fenofibrate 20 μM overnight, then LPS 1 hour
Method: (§3) Total RNA was isolated and IL-1β (A, D), TNF-α (B, E) and PGC-1α (C, F) gene expression were determined by RT-PCR.
(§4) Primary astrocytes from postnatal heterozygous mice were isolated and cultured and wild type mice were obtained by breeding these heterozygous knockout mice. […] Total RNA was isolated, and gene expression of pro-inflammatory cytokines, IL-1β and TNF-α, was determined by RT-PCR.

[3] = Hydrolysis of fenofibrate to fenofibric acid by pooled human liver microsomes (Km, Vmax); conditions: pH 7.4
Method: FIGS. 8A and 8B. […] Reaction was stopped, supernatant collected and fenofibric acid level was determined by LC-MS/MS. […] The samples were analyzed in duplicates and represented as mean values.
The reactions were stopped by the addition of a stop solution containing an internal standard.

BV2 cells = assay: LPS-induced IL-1β and PGC-1α gene expression in BV2 cells (qRT-PCR); assay type: cell-based; conditions: for reduction of LPS-induced IL-1β expression: then 0.1 ng/ml LPS 1 hour
Excerpt: FIG. 4. […] Then total RNA was isolated for IL-1β gene qRT-PCR analysis.
FIGS. 7A and 7B. […] Cell lysates were collected, and RNA was isolated for IL-1β (FIG. 7A) and PGC-1α (FIG. 7B) gene expression by RT-PCR.
Total BV2 cell RNA was extracted for IL-1β gene expression via qRT-PCR analysis.
Cell lysates were collected for determination of IL-1β and PGC-1α gene expression via qRT-PCR.

[4] = system: primary astrocytes derived from PGC-1α heterozygous KO (PGC-1α+/−) mice; assay: LPS-induced inflammation in primary astrocytes from PGC-1α heterozygous KO mice (RT-PCR gene expression); assay type: cell-based, mouse
Method: as §3, §4

[5] = substrate: CC(C)OC(=O)C(C)(C)Oc1ccc(C(=O)c2ccc(Cl)cc2)cc1; assay: cells, lysate or membranes named; assay type: biochemical, human; conditions: other: matrix hCES1b 0.05 mg/mL, product fenofibric acid, pH 7.4, 37° C.
Method: Reaction was stopped, supernatant collected and fenofibric acid level was determined by LC-MS/MS. Standard curve was plotted and the Km and Vmax values were calculated. The samples were analyzed in duplicates and represented as mean values.
Assay procedure: Incubation mixtures containing 100 mM Tris-Cl buffer (pH 7.4), and recombinant hCES1b (0.05 mg/mL) or pooled HLM (1 mg/mL) were warmed to 37° C. […] The reactions were stopped by the addition of a stop solution containing an internal standard. Samples were centrifuged to precipitate the protein while the supernatant was collected for determination of fenofibric acid using liquid chromatography-tandem mass spectrometry (LC-MS/MS) analysis. […] The Km and Vmax values were calculated by fitting data to enzyme kinetics models (Table 1).

[6] = read-out: Ki, Competitive inhibition model
[7] = read-out: Ki, Mixed inhibition model
[8] = read-out: Ki, Non-Competitive inhibition model
[9] = read-out: Ki, Uncompetitive inhibition model

| Molecule | Ki (recombinant hCES1b; [6]) [µM] | Ki (recombinant hCES1b; [7]) [µM] | Ki (recombinant hCES1b; [8]) [µM] | Ki (recombinant hCES1b; [9]) [µM] | Ki [1, 6] [µM] | Ki [1, 7] [µM] | Ki [1, 8] [µM] | Ki [1, 9] [µM] | reduction of LPS-induced IL-1β expression [2] [%] | Km at 10 min [3] [µM] | reduction of LPS-induced IL-1β expression (BV2 cells; 20 μM, 18 hours) | increase of PGC-1α expression (BV2 cells; 20 μM, 18 hours, then LPS 1 hour) [fold] | enhancement of PGC-1α expression ([4]; fenofibrate 10 and 20 μM) [fold] | reduction of LPS-induced IL-1β expression ([4]; fenofibrate overnight (5, 10, 20 μM tested; concentration not stated), then LPS 1 hour) [%] | reduction of LPS-induced IL-1β expression (BV2 cells; 10 μM, 18 hours) [%] | effect on PGC-1α expression (BV2 cells; kaempferol alone 10, 20 μM) | Km [5] [µM] | Vmax [5] [µmol/min/mg] |
| --- | --- | --- | --- | --- | --- | --- | --- | --- | --- | --- | --- | --- | --- | --- | --- | --- | --- | --- |
| O=[N+]([O-])c1ccc(OP(=O)(O)Oc2ccc([N+](=O)[O-])cc2)cc1 [BNP, bis(4-nitrophenyl)-phosphate] | 0.044 | 0.044 | 0.17 | 0.096 | 1.67 | 1.66 | 5.17 | 3.02 |  |  |  |  |  |  |  |  |  |  |
| CC(C)OC(=O)C(C)(C)Oc1ccc(C(=O)c2ccc(Cl)cc2)cc1 [Fenofibrate] |  |  |  |  |  |  |  |  | 60 | 5.4 | 80% and 70% | 2 | 1.5 | 55 |  |  |  |  |
| O=c1c(O)c(-c2ccc(O)cc2)oc2cc(O)cc(O)c12 [Kaempferol, 3,5,7-trihydroxy-2-(4-hydroxyphenyl)-4H-1-benzopyran-4-one] | 36.2 | 101 | 101 | 64.7 | 110 |  | 235 | 131 |  |  | 85% |  |  |  | 60 | did not enhance PGC-1α expression |  |  |
| recombinant hCES1b (Homo sapiens) (protein) GHPSSPPVVDTVHGKVLGKFVSLEGFAQPVAIFLGIPFAKPPLGPLRFTPPQPAEPWSFVKNATSYPPMCTQDPKAGQLLSELFTNRKENIPLKLSEDCLYLNIYTPADLTKKNRLPVMVWIHGGGLMVGAASTYDGLALAAHENVVVVTIQYRLGIWGFFSTGDEHSRGNWGHLDQVAALRWVQDNIASFGGNPGSVTIFGESAGGESVSVLVLSPLAKNLFHRAISESGVALTSVLVKKGDVKPLAEQIAITAGCKTTTSAVMVHCLRQKTEEELLETTLKMKFLSLDLQGDPRESQPLLGTVIDGMLLLKTPEELQAERNFHTVPYMVGINKQEFGWLIPMQLMSYPLSEGQLDQKTAMSLLWKSYPLVCIAKELIPEATEKYLGGTDDTVKKKDLFLDLIADVMFGVPSVIVARNHRDAGAPTYMYEFQYRPSFSSDMKPKTVIGDHGDELFSVFGAPFLKEGASEEEIRLSKMVMKFWANFARNGNPNGEGLPHWPEYNQKEGYLQIGANTQAAQKLKDKEVAFWTNLFAKKAVEKPPQTEHIEL |  |  |  |  |  |  |  |  |  |  |  |  |  |  |  |  | 6.04 | 0.0283 |
